# Entries after “also recorded” stand apart in the source; their conditions may differ.
# Assays:
# [1] = Plasma protein binding rate by ultrafiltration, rat plasma; assay type: in vitro ADME
# Method: (§1) The glytrexate stock solution was diluted with 20% methanol (1% formic acid) to three mass concentrations of 50, 100, and 200 μg/ml for use. One hundred microliters of glytrexate solution of the corresponding concentration (3 duplicates each in parallel) was added to 900 μl of rat/human plasma, vortexed and mixed well to prepare plasma samples with plasma concentrations of 5, 10, and 20 μg/ml.
# (§2) The plasma sample was placed in a constant temperature water bath at 37°C for a certain period to obtain an incubation solution. After the incubation solution was removed, it was placed on ice to maintain a low temperature, transferred to a filtrate tube (500 μl), and placed in a low-temperature refrigerated centrifuge at 4°C and 14,000 rpm for 20 min to obtain filtrate.
# (§3) The test tube containing the drug concentration was incubated in a constant temperature water bath at 37°C. Each sample was obtained at 10 min, 30 min, 60 min, 120 min, 240 min, and 360 min and the drug concentration before and after ultrafiltration was determined. The plasma protein binding rate (%) = [(Cincubation solution-CUltrafiltrate)/Cincubation solution]×100%. GraphPad Prism 8 software was used to perform a one-way analysis of variance on the plasma protein binding rate of glytrexate between different mass concentrations in the same species.
# [2] = Stability on incubation in artificial gastrointestinal fluids at 37°C; assay type: in vitro ADME; conditions: up to 3 h, 100 μg/ml
# Method: Blank artificial gastric fluid: hydrochloric acid (2.75 mol/L, 16.4 ml) was diluted with 800 ml of water, adjusted to the pH 1.3 with 0.1 mol/L hydrochloric acid solution, diluted with water and diluted to 1000 ml.
# Artificial gastric fluid: hydrochloric acid (2.75 mol/L, 16.4 ml) was diluted with 800 ml of water, and then 10 g of pepsin was added and shaken well until dissolved. The pH was adjusted to 1.3 with 0.1 mol/L hydrochloric acid solution, and then the artificial gastric fluid solution was diluted with water to 1000 ml.
# Blank artificial intestinal fluid: potassium dihydrogen phosphate (6.8 g) was diluted with 500 ml of water, and shaken until dissolved. The pH was adjusted to 6.8 with 0.1 mol/L sodium hydroxide solution, and the solution was diluted with water to 1000 ml. […]
# The test tube containing the drug concentration was incubated in a constant temperature water bath at 37°C. Each sample was obtained at 0, 0.5, 1.0, 1.5, 2.0, and 3.0 h, and the drug concentration was measured. […]
# (§4) Fifty microliters of the above solution was accurately drawn at different incubation time points, and 155 μl of ice-cold methanol (1% formic acid) and 5 μl of IS solution were added. […] An appropriate amount of the supernatant was placed into the sample vial, and analyzed. […]
# All samples were analyzed using the established LC‒MS/MS method, and MultiQuant 3.0 software was used for data processing. […]
# KB tumor cells = tested on: KB tumor cells; parameters: method as in Xing et al., 2017; conditions: ref Xing et al., 2017, read-out: IC50, inhibitory action on KB tumor cells; cited from earlier work
# [3] = Storage stability of glytrexate in rat plasma (short-term, autosampler, freeze-thaw, long-term); assay type: in vitro ADME
# Method: For short-term and long-term stability, plasma samples (LQC and HQC) were kept at room temperature for 8 h and at −20°C for 14 consecutive days, respectively. To evaluate the freeze-thaw stability, plasma samples (n = 6) were investigated through three cycles from −20°C to 25°C, and the stability of the postpreparative samples after 8 h was evaluated in autosampler vials at 4°C. The results were evaluated by calculating the peak area ratio (glytrexate/IS) of the stability samples. If glytrexate is stable in rat plasma, the accuracy (RE) should be within ±15% and the precision (RSD) < 15%.
# [4] = Metabolic stability in human liver microsomes; assay type: in vitro ADME; conditions: 37°C
# Method: (§5) The test tube containing the drug concentration was incubated in a constant temperature water bath at 37°C. Each sample was obtained at 0, 0.5, 1.0, 1.5, 2.0, and 3.0 h, and the drug concentration was measured.
# The metabolic stability of glytrexate was determined by incubation with human liver microsomes at 37°C. The reaction in the incubation system containing 10 μl of glytrexate (1 mg/ml), 50 μl of liver microsomes (1 mg/ml), and 10 μl of PBS (pH 7.4) was initiated by the addition of 30 μl of NADPH after 5 min of preincubation. The total incubation volume was 100 μl. The reaction was terminated at predefined time points (0, 0.5, 1, 1.5, 2, and 3 h). The incubations were conducted in triplicate.
# as §4, with “added. The mixture was vortexed for 60 s and centrifuged at 14,000 rpm for 10 min.” for “added.”
# (§6) All samples were analyzed using the established LC‒MS/MS method, and MultiQuant 3.0 software was used for data processing. The glytrexate concentration at each time point was calculated, the remaining percentage was calculated, and the concentration change trend was analyzed.
# [5] = Stability on incubation in human plasma at 37°C; assay type: in vitro ADME; conditions: up to 3 h, 1 μg/ml
# Method: as §5
# Fifty microliters of the above solution was accurately drawn at different incubation time points, and 155 μl of ice-cold methanol (1% formic acid) and 5 μl of IS solution were added. The mixture was vortexed for 60 s and centrifuged at 14,000 rpm for 10 min. Then, 165 μl of supernatant was transferred to a new tube and evaporated to dryness under a gentle stream of nitrogen at room temperature. The residue was dissolved in 50 μl 20% methanol (1% formic acid), vortexed for 60 s and centrifuged at 14,000 rpm for 10 min. An appropriate amount of the supernatant was placed into the sample vial, and analyzed. Each experiment was repeated 3 times.
# The plasma sample concentration was 1 μg/ml, and the concentration of the other samples was 100 μg/ml.
# as §6
# [6] = Plasma protein binding rate by ultrafiltration, human plasma; assay type: in vitro ADME
# Method: as §1, §2, §3
# [7] = 5 μg/ml, 37°C, 30 min incubation, ultrafiltration
# [8] = 10 μg/ml, 37°C, 30 min incubation, ultrafiltration
# [9] = 20 μg/ml, 37°C, 30 min incubation, ultrafiltration
# [10] = 4°C for 8 h in rat plasma, spiked 5 ng/ml
# [11] = 4°C for 8 h in rat plasma, spiked 1600 ng/ml
# [12] = room temperature for 8 h in rat plasma, spiked 5 ng/ml
# [13] = room temperature for 8 h in rat plasma, spiked 1600 ng/ml
# [14] = three freeze‒thaw cycles in rat plasma, spiked 5 ng/ml
# [15] = three freeze‒thaw cycles in rat plasma, spiked 1600 ng/ml
# [16] = −20°C for 14 days in rat plasma, spiked 5 ng/ml
# [17] = −20°C for 14 days in rat plasma, spiked 1600 ng/ml
compound,measurement,setting,value
"Nc1nc2[nH]c(CC(=O)NCC(=O)N[C@@H](CCC(=O)O)C(=O)O)cc2c(=O)[nH]1 [glytrexate, (S)-2-{2-[2-(2-amino-4-oxo-4,7-dihydro-3H-pyrrolo [2,3-d]pyrimidin-6-yl)-acetylamino]-acetylamino}-pentanedioic acid]","fraction unbound at 30 min, 5 μg/ml",[1]; [7],0.863
same,"fraction unbound at 30 min, 10 μg/ml",[1]; [8],0.813
same,"fraction unbound at 30 min, 20 μg/ml",[1]; [9],0.947
same,fraction unbound at 30 min,"[1]; over 5, 10 and 20 μg/ml",> 0.7
same,stability in artificial gastrointestinal fluid (in words),[2],did not remain stable
same,IC50,KB tumor cells,0.078 nM
same,% Deviation after storage,[3]; [10],−11.50%
same,Mean measured concentration after storage,[3]; [10],4.43 ± 0.21 ng/mL
same,% Deviation after storage,[3]; [11],−2.11%
same,Mean measured concentration after storage,[3]; [11],1566.21 ± 100.13 ng/mL
same,% Deviation after storage,[3]; [12],−10.23%
same,Mean measured concentration after storage,[3]; [12],4.49 ± 0.40 ng/mL
same,% Deviation after storage,[3]; [13],−0.82%
same,Mean measured concentration after storage,[3]; [13],1586.82 ± 103.89 ng/mL
same,% Deviation after storage,[3]; [14],−2.27%
same,Mean measured concentration after storage,[3]; [14],4.89 ± 0.68 ng/mL
same,% Deviation after storage,[3]; [15],−1.81%
same,Mean measured concentration after storage,[3]; [15],1571.07 ± 105.54 ng/mL
same,% Deviation after storage,[3]; [16],−6.40%
same,Mean measured concentration after storage,[3]; [16],4.68 ± 0.40 ng/mL
same,% Deviation after storage,[3]; [17],−2.01%
same,Mean measured concentration after storage,[3]; [17],1567.82 ± 112.14 ng/mL
same,metabolic stability in human liver microsomes (in words),[4]; up to 3 h,good microsomal stability
same,half-life at 0.1 mg/ml,"[4]; human, liver microsomes, pH 7.4, NADPH, regression of ln remaining vs incubation time, read-out: half-life (t1/2) in human liver microsomes",1.83 h
same,stability in human plasma compared with other matrices (in words),[5],more stable in human plasma than in human liver microsomes and artificial gastrointestinal fluid; also recorded: more stable in human plasma than in rat plasma and in human liver microsomes; also recorded: greatest amount of remaining glytrexate was found in human plasma
same,"fraction unbound at 30 min, 5 μg/ml",[6]; [7],0.758
same,"fraction unbound at 30 min, 10 μg/ml",[6]; [8],0.754
same,"fraction unbound at 30 min, 20 μg/ml",[6]; [9],0.807
same,fraction unbound,"[6]; over 5, 10 and 20 μg/ml",~0.75
